9 molecules from US20240287138A1, “CYCLIC PEPTIDES FOR INHIBITING TNF RECEPTOR 1 ACTIVITY” (Merck Sharp & Dohme LLC, priority 2023, published 2024) can be followed below.

Numbered stars: 1 amine (or outer) side, 2 acyl side, 3 side chain; on linkers, the order of the positions; unused ones are H or OH. Bridge positions count the residues as written; N and C are the ends. Square brackets hold non-standard residues; d marks the D form. Peptide text beside a SMILES is read from it. * marks the point of attachment. Trp(βS-Me,7-OMe) = COc1cccc2c([C@H](C)[C@H](N)C(=O)O)c[nH]c12; Phe(3R-OH) = O=C([C@@H](N[*:1])[C@H](O[*:3])c1ccccc1)[*:2]; Phe(4-SO2NH2) = N[C@@H](Cc1ccc(S(N)(=O)=O)cc1)C(=O)O; Phe(2-F,4-COOH) = N[C@@H](Cc1ccc(C(=O)O)cc1F)C(=O)O; Trp(4-Cl) = N[C@@H](Cc1c[nH]c2cccc(Cl)c12)C(=O)O; Trp(7-CN) = N#Cc1cccc2c(C[C@H](N)C(=O)O)c[nH]c12; Trp(7-Cl) = N[C@@H](Cc1c[nH]c2c(Cl)cccc12)C(=O)O; Phe(4-CONH2) = NC(=O)c1ccc(C[C@H](N)C(=O)O)cc1; Phe(4-COOH) = N[C@@H](Cc1ccc(C(=O)O)cc1)C(=O)O; Trp(7-aza) = N[C@@H](Cc1c[nH]c2ncccc12)C(=O)O; X10 = O=C([C@H](Cc1ccnc2ccccc12)N[*:1])[*:2]; Pip(5R-OH) = O=C(O)[C@@H]1CC[C@@H](O)CN1; X1 = O=C([C@@H]1CC[C@H](N[*:1])C1)[*:2]; Pip(4-aza) = O=C(O)[C@@H]1CNCCN1; 4Pal = N[C@@H](Cc1ccncc1)C(=O)O; NMeE = CN[C@@H](CCC(=O)O)C(=O)O; dHyp = O=C(O)[C@H]1C[C@H](O)CN1; Ahp(2) = CCCCC[C@H](N)C(=O)O; αMeS = C[C@](N)(CO)C(=O)O; Carboxymethyl = O=C(O)C*; Nle = CCCC[C@H](N)C(=O)O; Ethyl(2-NH2) = NCC*; Sar = CNCC(=O)O

The first test has as its target T1, TNFα-induced NF-κB signal transduction pathway (TNFR1 signaling) in THP-1 cells (Homo sapiens, UniProt P19438).
T1 sequence (P19438 30-455): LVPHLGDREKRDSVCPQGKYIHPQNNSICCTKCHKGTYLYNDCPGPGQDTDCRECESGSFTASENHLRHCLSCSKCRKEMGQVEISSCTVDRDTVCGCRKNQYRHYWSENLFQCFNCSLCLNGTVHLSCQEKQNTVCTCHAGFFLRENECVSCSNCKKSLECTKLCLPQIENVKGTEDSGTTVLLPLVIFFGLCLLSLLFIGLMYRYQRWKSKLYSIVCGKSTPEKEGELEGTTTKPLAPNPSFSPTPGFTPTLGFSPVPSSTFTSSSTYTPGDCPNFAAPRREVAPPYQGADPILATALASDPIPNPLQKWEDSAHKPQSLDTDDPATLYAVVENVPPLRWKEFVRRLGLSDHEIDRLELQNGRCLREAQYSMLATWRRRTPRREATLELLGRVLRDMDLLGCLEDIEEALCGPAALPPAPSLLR
Kind of test: THP-1 Lucia NF-κB reporter cell assay, inhibition of TNFα-induced NF-κB signaling. In kind it is cell-based. Conditions: THP-1 NF-κB Lucia reporter cells, 10 ng/mL TNFα, 16-18 h, secreted luciferase; read-out: THP-1 IC50. The essentials:
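Read-out: secreted Lucia luciferase luminescence (QUANTI-Luc) from supernatant after 16-18 h, 37 °C, 10 ng/mL rhTNFα. Peptide pretreatment 1 h at 37 °C; 20,000 cells/well, selection antibiotics omitted. IC50 via 4-parameter logistic model against min/max controls.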
As to `CCCCC[C@@H]1NC(=O)[C@@H]2CC[C@@H](C2)NC(=O)[C@H]([C@@H](C)c2c[nH]c3c(OC)cccc23)NC(=O)CN(C)C(=O)[C@H](Cc2ccc(OC)cc2)NC(=O)[C@H](Cc2ccc(C(N)=O)cc2)NC(=O)[C@](C)(CO)NC(=O)[C@H](Cc2c[nH]c3c(C#N)cccc23)NC(=O)[C@H](Cc2ccncc2)NC(=O)[C@H](CC(N)=O)NC(=O)[C@H]2C[C@H](O)CN2C(=O)[C@H](Cc2c[nH]c3ccccc23)NC(=O)[C@@H]2CNCCN2C(=O)[C@H](Cc2ccncc2)NC1=O` [SEQ ID NO. 200] (cyclo([4Pal][Trp(7-CN)][αMeS][Phe(4-CONH2)]Y(Me)[Sar][Trp(βS-Me,7-OMe)][X1][Ahp(2)][4Pal][Pip(4-aza)]W[dHyp]N)), the IC50 came out at 1 nM. Still for that read-out and setting: the result for `CN1CC(=O)N[C@@H](Cc2c[nH]c3cccc(Cl)c23)C(=O)N[C@H](C(N)=O)CSCC(=O)N[C@@H](CCC(N)=O)C(=O)N[C@@H](Cc2ccncc2)C(=O)N[C@@H](CO)C(=O)N[C@@H](Cc2c[nH]c3ncccc23)C(=O)N(C)[C@@H](CCC(=O)O)C(=O)N[C@@H](CC(N)=O)C(=O)N[C@@H](Cc2ccncc2)C(=O)N[C@@H](Cc2c[nH]c3c(Cl)cccc23)C(=O)N[C@@](C)(CO)C(=O)N[C@@H](Cc2ccc(C(=O)O)cc2)C(=O)N[C@@H](Cc2ccc(O)cc2)C1=O` [SEQ ID NO. 239] ({CH2CO}-Q[4Pal]S[Trp(7-aza)][NMeE]N[4Pal][Trp(7-Cl)][αMeS][Phe(4-COOH)]Y[Sar][Trp(4-Cl)]C-NH2; thioether N-14) reads 1.4 nM; that for `COc1cccc2c([C@H](C)[C@@H]3NC(=O)CN(C)C(=O)[C@H](Cc4ccc(C(=O)O)cc4)NC(=O)[C@H](Cc4ccc(C(N)=O)cc4)NC(=O)[C@](C)(CO)NC(=O)[C@H](Cc4c[nH]c5c(Cl)cccc45)NC(=O)[C@H](Cc4ccc(C(=O)O)cc4)NC(=O)[C@H](CC(N)=O)NC(=O)[C@H]4C[C@H](O)CN4C(=O)[C@H](Cc4c[nH]c5ncccc45)NC(=O)[C@@H]4CC[C@@H](O)CN4C(=O)[C@H](Cc4ccncc4)NC(=O)[C@H](COCCN)NC(=O)[C@@H]4CC[C@@H](C4)NC3=O)c[nH]c12` [SEQ ID NO. 148] (cyclo([4Pal][Pip(5R-OH)][Trp(7-aza)][dHyp]N[Phe(4-COOH)][Trp(7-Cl)][αMeS][Phe(4-CONH2)][Phe(4-COOH)][Sar][Trp(βS-Me,7-OMe)][X1]S(Ethyl(2-NH2)))), 2.8 nM; that for `CCCC[C@@H]1NC(=O)[C@@H]2CC[C@@H](C2)NC(=O)[C@H]([C@@H](C)c2c[nH]c3c(OC)cccc23)NC(=O)CN(C)C(=O)[C@H](Cc2ccc(O)cc2)NC(=O)[C@H](Cc2ccc(C(=O)O)cc2)NC(=O)[C@](C)(CO)NC(=O)[C@H](Cc2c[nH]c3c(Cl)cccc23)NC(=O)[C@H](Cc2ccc(C(=O)O)cc2)NC(=O)[C@H](CC(N)=O)NC(=O)[C@H](CCC(=O)O)N(C)C(=O)[C@H](Cc2c[nH]c3ccccc23)NC(=O)[C@@H]2CNCCN2C(=O)[C@H](Cc2ccncc2)NC1=O` [SEQ ID NO. 288] (cyclo([4Pal][Pip(4-aza)]W[NMeE]N[Phe(4-COOH)][Trp(7-Cl)][αMeS][Phe(4-COOH)]Y[Sar][Trp(βS-Me,7-OMe)][X1][Nle])), 4.2 nM. The same measure, in the same setting: for `C[C@@]1(CO)NC(=O)[C@H](Cc2c[nH]c3ncccc23)NC(=O)[C@H](Cc2ccncc2)NC(=O)[C@H](CC(N)=O)NC(=O)[C@H]2CCCN2C(=O)[C@H](Cc2ccnc3ccccc23)NC(=O)[C@H](CO)NC(=O)[C@H](Cc2ccncc2)NC(=O)[C@H](CCC(N)=O)NC(=O)CSC[C@@H](C(N)=O)NC(=O)[C@H](Cc2c[nH]c3cccc(Cl)c23)NC(=O)[C@@H]2CCCN2C(=O)[C@H](Cc2ccc(O)cc2)NC(=O)[C@H](Cc2ccc(C(=O)O)cc2)NC1=O` [SEQ ID NO. 278] ({CH2CO}-Q[4Pal]S[X10][dP]N[4Pal][Trp(7-aza)][αMeS][Phe(4-COOH)]YP[Trp(4-Cl)]C-NH2; thioether N-14) the value was 54.5 nM; for `CCCC[C@@H]1NC(=O)CSC[C@@H](C(N)=O)NC(=O)[C@H]([C@@H](C)c2c[nH]c3c(OC)cccc23)NC(=O)CN(C)C(=O)[C@H](Cc2ccc(O)cc2)NC(=O)[C@H](Cc2ccc(C(=O)O)cc2)NC(=O)[C@](C)(CO)NC(=O)[C@H](Cc2c[nH]c3c(Cl)cccc23)NC(=O)[C@H](Cc2ccncc2)NC(=O)[C@H](CC(N)=O)NC(=O)[C@H]2CCCN2C(=O)[C@H](Cc2c[nH]c3ccccc23)NC(=O)[C@@H]2CC[C@@H](O)CN2C(=O)[C@H](Cc2ccncc2)NC1=O` [SEQ ID NO. 203] ({CH2CO}-[Nle][4Pal][Pip(5R-OH)]W[dP]N[4Pal][Trp(7-Cl)][αMeS][Phe(4-COOH)]Y[Sar][Trp(βS-Me,7-OMe)]C-NH2; thioether N-14), 1.6 nM; for `CCCC[C@@H]1NC(=O)[C@@H]2CC[C@@H](C2)NC(=O)[C@H]([C@@H](C)c2c[nH]c3c(OC)cccc23)NC(=O)CN(C)C(=O)[C@H](Cc2ccc(C(=O)O)cc2F)NC(=O)[C@H](Cc2ccc(S(N)(=O)=O)cc2)NC(=O)[C@](C)(CO)NC(=O)[C@H](Cc2c[nH]c3c(C#N)cccc23)NC(=O)[C@H](Cc2ccc(C(=O)O)cc2F)NC(=O)[C@H](CC(N)=O)NC(=O)[C@H]2C[C@H](OCC(=O)O)CN2C(=O)[C@H](Cc2c[nH]c3ncccc23)NC(=O)[C@@H]2CC[C@@H](O)CN2C(=O)[C@H](Cc2ccncc2)NC1=O` [SEQ ID NO. 134] (cyclo([4Pal][Pip(5R-OH)][Trp(7-aza)][dHyp](Carboxymethyl)N[Phe(2-F,4-COOH)][Trp(7-CN)][αMeS][Phe(4-SO2NH2)][Phe(2-F,4-COOH)][Sar][Trp(βS-Me,7-OMe)][X1][Nle])), 0.4 nM. Still for that read-out and setting: for `CCCC[C@@H]1NC(=O)CSC[C@@H](C(N)=O)NC(=O)[C@H]([C@@H](C)c2c[nH]c3c(OC)cccc23)NC(=O)CN(C)C(=O)[C@H](Cc2ccc(O)cc2)NC(=O)[C@H](Cc2ccc(C(=O)O)cc2)NC(=O)[C@](C)(CO)NC(=O)[C@H](Cc2c[nH]c3c(Cl)cccc23)NC(=O)[C@H](Cc2ccncc2)NC(=O)[C@H](CC(N)=O)NC(=O)[C@H](CCC(=O)O)N(C)C(=O)[C@H](Cc2c[nH]c3ncccc23)NC(=O)[C@H](CO)NC(=O)[C@H]([C@H](O)c2ccccc2)NC1=O` [SEQ ID NO. 259] ({CH2CO}-[Nle][Phe(3R-OH)]S[Trp(7-aza)][NMeE]N[4Pal][Trp(7-Cl)][αMeS][Phe(4-COOH)]Y[Sar][Trp(βS-Me,7-OMe)]C-NH2; thioether N-14) the value was 1.9 nM.

Still in this test, the particulars now being: read-out: THP-1 IC50; THP-1 NF-κB Lucia reporter cells, 10 ng/mL TNFα, 16-18 h, secreted luciferase.
`CN1CC(=O)N[C@@H](CC(N)=O)C(=O)N[C@@H](Cc2ccc(O)cc2)C(=O)N[C@@H](Cc2c[nH]c3ccccc23)C(=O)N[C@@H](CO)C(=O)N[C@@H](Cc2ccc(O)cc2)C(=O)N[C@@H](Cc2ccc(O)cc2)C(=O)N(C)CC(=O)N[C@@H](Cc2c[nH]c3ccccc23)C(=O)N[C@H](C(=O)NCC(=O)N[C@@H](CCC(=O)O)C(=O)N[C@@H](CCC(=O)O)C(N)=O)CSCC(=O)N[C@@H](Cc2ccccc2)C(=O)N[C@@H](Cc2ccc(O)cc2)C(=O)N[C@@H](CO)C(=O)N[C@@H](Cc2c[nH]c3ccccc23)C1=O` [SEQ ID NO. 289] ({CH2CO}-FYSW[Sar]NYWSYY[Sar]WCGEE-NH2; thioether N-14): the half-inhibitory concentration (IC50) is 36.4 nM.
